Measured values taken from US20230146455A1, “TREATMENT OF INFLAMMATORY DISEASES WITH PEPTIDES AND PHARMACEUTICAL COMPOSITIONS” (Yuyu Pharma, Inc., priority 2020, published 2023).
“And” between values parts separate entries of the source, which are not always exact repeats. Equal values may be shown once. Where a SMILES comes first, the peptide text is derived from it. [ ]: non-standard residue; d: D form. Hyp = O=C(O)[C@@H]1C[C@@H](O)CN1

Key:
CCL4/MIP-1 beta = assay: Example 8 main study Luminex, LPS hPBMCs: CCL4/MIP-1 beta; format: cell-based, human
Method: (§1) Human PBMCs were pretreated with YY-101, YDE-011, YDE-043 or reference compound; Xiidra® at various concentration (ranging from […] to 500 nM) for 2 h before stimulation. An equal volume of 0.5% DMSO was used as a vehicle control. Then, the cells were treated with LPS at 5 ug/ml, which was selected based on the pilot study. The supernatants from treated cells were harvested at 24 h and placed in a 96 well for Luminex cytokine & chemokine profiling using a Luminex 200 multiplex assay (Luminex; R&D system, USA).
(§2) The main study arm with triplicate wells per group in a 24-well plate: • 1. Blank • 2. PBMC: 0.5% DMSO • 3. PBMC+LPS (5 ug/ml) • 4. PBMC+YY-101 500 nM • 5. PBMC+YY-101 50 nM • 6. PBMC+YY-101 5 nM • 7. PBMC+YY-101 0.5 nM • 8. PBMC+LPS (5 ug/ml)+Xiidra® 500 nM • 9. PBMC+LPS (5 ug/ml)+Xiidra® 50 nM • 10. PBMC+LPS (5 ug/ml)+Xiidra® 5 nM • 11. PBMC+LPS (5 ug/ml)+Xiidra® 0.5 nM • 12. PBMC+LPS (5 ug/ml)+Xiidra® 0.05 nM • 13. PBMC+LPS (5 ug/ml)+Xiidra® 0.005 nM • 14. PBMC+LPS (5 ug/ml)+YY-101 500 nM • 15. PBMC+LPS (5 ug/ml)+YY-101 50 nM • 16. PBMC+LPS (5 ug/ml)+YY-101 5 nM • 17. PBMC+LPS (5 ug/ml)+YY-101 0.5 nM • 18. PBMC+LPS (5 ug/ml)+YY-101 0.05 nM • 19. PBMC+LPS (5 ug/ml)+YY-101 0.005 nM • 20. PBMC+LPS (5 ug/ml)+YDE-011 500 nM • 21. PBMC+LPS (5 ug/ml)+YDE-011 50 nM • 22. PBMC+LPS (5 ug/ml)+YDE-011 5 nM • 23. PBMC+LPS (5 ug/ml)+YDE-011 0.5 nM • 24. PBMC+LPS (5 ug/ml)+YDE-011 0.05 nM • 25. PBMC+LPS (5 ug/ml)+YDE-011 0.005 nM • 26. PBMC+LPS (5 ug/ml)+YDE-043 500 nM • 27. PBMC+LPS (5 ug/ml)+YDE-043 50 nM • 28. PBMC+LPS (5 ug/ml)+YDE-043 5 nM • 29. PBMC+LPS (5 ug/ml)+YDE-043 0.5 nM • 30. PBMC+LPS (5 ug/ml)+YDE-043 0.05 nM • 31. PBMC+LPS (5 ug/ml)+YDE-043 0.005 nM
(§3) Multiplex assay was used to measure 30 cytokines and chemokines. The 1:200 diluted cell supernatant and serial dilution of the standard were dispensed into a 96 well plate at 50 ul/well. Then, the pre-mixed cocktail of antibody-coated magnetic beads was dispensed at 50 ul/well and incubated at room temperature for 2 h in a horizontal orbital microplate shaker at 800±500 rpm. The beads were washed using a magnetic device to prevent loss. The biotin-antibody was dispensed in 50 ul of each well and incubated at room temperature for 1 h in a shaker at 800±500 rpm. After washing, streptavidin-PE was added at 50 ul/well and incubated at room temperature for 30 min in a shaker under the same conditions. Finally, after washing, wash buffer (100 ul/well) was added to the plate and incubated in a shaker for 2 min. The Luminex™ 200 setting were set according to the manufacturer's protocol. The data was calculated with a standard five-parameter logistic nonlinear regression analysis of the data (xPonent software 4.2, USA). Results were presented as concentration (ng/ml or pg/ml).

IL-6 = assay: Example 8 main study Luminex, LPS hPBMCs: IL-6; format: cell-based, human
Method: as §1, §2, §3

[1] = PBMC + LPS(5 ug/ml) + test article 0.005 nM, Mean
[2] = PBMC + LPS(5 ug/ml) + test article 0.005 nM, single replicates
[3] = PBMC + LPS(5 ug/ml) + test article 0.05 nM, Mean
[4] = PBMC + LPS(5 ug/ml) + test article 0.05 nM, single replicates
[5] = PBMC + LPS(5 ug/ml) + test article 0.5 nM, Mean
[6] = PBMC + LPS(5 ug/ml) + test article 0.5 nM, single replicates
[7] = PBMC + LPS(5 ug/ml) + test article 5 nM, Mean
[8] = PBMC + LPS(5 ug/ml) + test article 5 nM, single replicates
[9] = PBMC + LPS(5 ug/ml) + test article 50 nM, Mean
[10] = PBMC + LPS(5 ug/ml) + test article 50 nM, single replicates
[11] = PBMC + LPS(5 ug/ml) + test article 500 nM, Mean
[12] = PBMC + LPS(5 ug/ml) + test article 500 nM, single replicates
[13] = PBMC + test article 0.5 nM, no LPS, single replicates
[14] = PBMC + test article 5 nM, no LPS, single replicates
[15] = PBMC + test article 0.05 uM, no LPS, single replicates
[16] = PBMC + test article 50 nM, no LPS, single replicates
[17] = PBMC + test article 500 nM, no LPS, single replicates
[18] = at as low as 5 μM, LPS 5 ug/mL 24 hrs

## CC(C)C[C@H](NC(=O)CNC(=O)[C@H](CC(=O)O)NC(=O)[C@H](CCC(N)=O)NC(=O)CNC(=O)[C@@H]1C[C@@H](O)CN1)C(=O)N[C@@H](C)C(=O)NCC(=O)N1CCC[C@H]1C(=O)N[C@@H](CCCCN)C(=O)O [YY-101] (H-[Hyp]GQDGLAGPK-OH; N-terminus and C-terminus assumed)
CCL4/MIP-1 beta; [1]
  CCL4/MIP-1 beta Concentration: 21677.4 pg/mL
  CCL4/MIP-1 beta MFI: 12.7
CCL4/MIP-1 beta; [2]
  CCL4/MIP-1 beta Concentration: 25629.7 pg/ml and 19701.2 pg/ml (2×)
  CCL4/MIP-1 beta MFI: 14.0 and 12.0 (2×)
CCL4/MIP-1 beta; [3]
  CCL4/MIP-1 beta Concentration: 21011.4 pg/mL
  CCL4/MIP-1 beta MFI: 12.5
CCL4/MIP-1 beta; [4]
  CCL4/MIP-1 beta Concentration: 25629.7 pg/mL and 17703.4 pg/mL and 19701.2 pg/mL
  CCL4/MIP-1 beta MFI: 14.0 and 11.5 and 12.0
CCL4/MIP-1 beta; [5]
  CCL4/MIP-1 beta Concentration: 21011.4 pg/mL
  CCL4/MIP-1 beta MFI: 12.5
CCL4/MIP-1 beta; [6]
  CCL4/MIP-1 beta Concentration: 17703.4 pg/mL and 25629.7 pg/mL and 19701.2 pg/mL
  CCL4/MIP-1 beta MFI: 11.5 and 14.0 and 12.0
CCL4/MIP-1 beta; [7]
  CCL4/MIP-1 beta Concentration: 16072.8 pg/mL
  CCL4/MIP-1 beta MFI: 11.2
CCL4/MIP-1 beta; [8]
  CCL4/MIP-1 beta Concentration: 17703.4 pg/ml and 15257.5 pg/ml (2×)
  CCL4/MIP-1 beta MFI: 11.5 and 11.0 (2×)
CCL4/MIP-1 beta; [9]
  CCL4/MIP-1 beta Concentration: 16738.7 pg/mL
  CCL4/MIP-1 beta MFI: 11.3
CCL4/MIP-1 beta; [10]
  CCL4/MIP-1 beta Concentration: 15257.5 pg/ml (2×) and 19701.2 pg/ml
  CCL4/MIP-1 beta MFI: 11.0 (2×) and 12.0
CCL4/MIP-1 beta; [11]
  CCL4/MIP-1 beta Concentration: 18220.0 pg/mL
  CCL4/MIP-1 beta MFI: 11.7
CCL4/MIP-1 beta; [12]
  CCL4/MIP-1 beta Concentration: 15257.5 pg/ml and 19701.2 pg/ml (2×)
  CCL4/MIP-1 beta MFI: 11.0 and 12.0 (2×)
CCL4/MIP-1 beta; PBMC + test article 0.5 nM, no LPS, Mean
  CCL4/MIP-1 beta MFI: 6.0
CCL4/MIP-1 beta; [13]
  CCL4/MIP-1 beta Concentration: <148.02 pg/mL
  CCL4/MIP-1 beta MFI: 6.0
CCL4/MIP-1 beta; PBMC + test article 5 nM, no LPS, Mean
  CCL4/MIP-1 beta MFI: 6.5
CCL4/MIP-1 beta; [14]
  CCL4/MIP-1 beta Concentration: <148.02 pg/mL
  CCL4/MIP-1 beta MFI: 7.0 and 6.0
CCL4/MIP-1 beta; PBMC + test article 0.05 uM, no LPS, Mean
  CCL4/MIP-1 beta MFI: 5.5
CCL4/MIP-1 beta; [15]
  CCL4/MIP-1 beta Concentration: <148.02 pg/mL
  CCL4/MIP-1 beta MFI: 6.0 and 5.0
CCL4/MIP-1 beta; PBMC + test article 50 nM, no LPS, Mean
  CCL4/MIP-1 beta MFI: 7.5
CCL4/MIP-1 beta; [16]
  CCL4/MIP-1 beta Concentration: <148.02 pg/mL
  CCL4/MIP-1 beta MFI: 8.0 and 7.0
CCL4/MIP-1 beta; PBMC + test article 500 nM, no LPS, Mean
  CCL4/MIP-1 beta MFI: 6.5
CCL4/MIP-1 beta; [17]
  CCL4/MIP-1 beta Concentration: <148.02 pg/mL
  CCL4/MIP-1 beta MFI: 6.0 and 7.0
CCL4/MIP-1 beta; [18]
  LPS-induced CCL-4 (in words): significantly reduced
IL-6; PBMC + LPS(5 ug/ml) + test article 0.005 nM
  IL-6 Concentration, Mean: 18061.6 pg/mL
IL-6; PBMC + LPS(5 ug/ml) + test article 0.005 nM, single replicates (1st, 2nd, 3rd)
  IL-6 Concentration: 18760.0 pg/mL and 17676.7 pg/mL and 17748.1 pg/mL
IL-6; PBMC + LPS(5 ug/ml) + test article 0.05 nM
  IL-6 Concentration, Mean: 18375.1 pg/mL
IL-6; PBMC + LPS(5 ug/ml) + test article 0.05 nM, single replicates (1st, 2nd, 3rd)
  IL-6 Concentration: 17605.3 pg/mL and 19105.4 pg/mL and 18414.7 pg/mL
IL-6; PBMC + LPS(5 ug/ml) + test article 0.5 nM
  IL-6 Concentration, Mean: 18018.0 pg/mL
IL-6; PBMC + LPS(5 ug/ml) + test article 0.5 nM, single replicates (1st, 2nd, 3rd)
  IL-6 Concentration: 18069.4 pg/mL and 17248.3 pg/mL and 18736.2 pg/mL
IL-6; PBMC + LPS(5 ug/ml) + test article 5 nM
  IL-6 Concentration, Mean: 17232.8 pg/mL
IL-6; PBMC + LPS(5 ug/ml) + test article 5 nM, single replicates (1st, 2nd, 3rd)
  IL-6 Concentration: 16606.0 pg/mL and 16439.5 pg/mL and 18652.8 pg/mL
IL-6; PBMC + LPS(5 ug/ml) + test article 50 nM
  IL-6 Concentration, Mean: 16962.9 pg/mL
IL-6; PBMC + LPS(5 ug/ml) + test article 50 nM, single replicates (1st, 2nd, 3rd)
  IL-6 Concentration: 16320.6 pg/mL and 16689.2 pg/mL and 17879.0 pg/mL
IL-6; PBMC + LPS(5 ug/ml) + test article 500 nM
  IL-6 Concentration, Mean: 17165.1 pg/mL
IL-6; PBMC + LPS(5 ug/ml) + test article 500 nM, single replicates (1st, 2nd, 3rd)
  IL-6 Concentration: 17129.3 pg/mL and 17748.1 pg/mL and 16617.9 pg/mL
IL-6; PBMC + test article 0.5 nM, no LPS
  IL-6 Concentration, Mean: 16.2 pg/mL
IL-6; PBMC + test article 0.5 nM, no LPS, single replicates (1st, 2nd)
  IL-6 Concentration: 5.0 pg/mL and 27.3 pg/mL
IL-6; PBMC + test article 5 nM, no LPS
  IL-6 Concentration, Mean: 5.0 pg/mL
IL-6; PBMC + test article 5 nM, no LPS, single replicates (1st, 2nd)
  IL-6 Concentration: 5.0 pg/mL
IL-6; PBMC + test article 0.05 uM, no LPS
  IL-6 Concentration, Mean: 140.1 pg/mL
IL-6; PBMC + test article 0.05 uM, no LPS, single replicates (1st, 2nd)
  IL-6 Concentration: 140.1 pg/mL and <2.65 pg/mL
IL-6; PBMC + test article 50 nM, no LPS
  IL-6 Concentration, Mean: 5.0 pg/mL
IL-6; PBMC + test article 50 nM, no LPS, single replicates (1st, 2nd)
  IL-6 Concentration: 5.0 pg/mL and <2.65 pg/mL
IL-6; PBMC + test article 500 nM, no LPS, single replicates (1st, 2nd)
  IL-6 Concentration: <2.65 pg/mL
IL-6; [18]
  LPS-induced IL-6 (in words): significantly reduced
